pEC50: −log10 of the molar value.
System: circulating lymphocytes
Experiment: Assessment of in vivo efficacy: circulating lymphocytes after oral administration
Design: species or system normotensive male Wistar rats
Details: 3 h after oral administration of 10 mg/kg, compared to animals treated with vehicle only; mean ± SEM

Structure (SMILES)	Lymphocyte counts [%]
CCCN(C)Cc1sc(-c2nc(-c3cc(C)c(OCC(O)CNC(=O)CO)c(C)c3)no2)cc1C (racemic) [Example 28]	−68 ± 3
CCc1cc(-c2noc(-c3cc(C)c(CN(CC)CC)s3)n2)cc(C)c1OC[C@@H](O)CNC(=O)CO [Example 56]	−68 ± 1

Molecular target: recombinant human S1P1 receptor (Homo sapiens, UniProt P21453)
Sequence (P21453 whole entry): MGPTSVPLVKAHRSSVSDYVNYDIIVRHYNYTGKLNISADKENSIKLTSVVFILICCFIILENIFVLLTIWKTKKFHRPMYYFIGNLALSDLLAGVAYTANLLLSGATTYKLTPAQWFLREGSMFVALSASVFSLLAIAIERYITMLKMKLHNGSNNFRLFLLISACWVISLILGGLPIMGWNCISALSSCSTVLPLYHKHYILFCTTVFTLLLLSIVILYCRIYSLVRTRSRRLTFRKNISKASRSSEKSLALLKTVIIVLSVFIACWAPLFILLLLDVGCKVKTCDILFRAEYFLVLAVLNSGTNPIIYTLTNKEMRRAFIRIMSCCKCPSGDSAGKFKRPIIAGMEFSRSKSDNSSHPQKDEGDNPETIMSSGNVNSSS
Experiment: GTPγS assay to determine EC50 values
Type: biochemical
Details: agonist concentration inducing 50% of maximal specific 35S-GTPγS binding; membranes of CHO cells expressing recombinant human S1P1
Procedure: GTPγS Assay to Determine EC50 Values
GTPγS binding assays are performed in 96 well microtiter plates (Nunc, 442587) in a final volume of 200 μl, using membrane preparations of CHO cells expressing recombinant human S1P1 receptor. Assay conditions are 20 mM Hepes (Fluka, 54461), 100 mM NaCl (Fluka, 71378), 5 mM MgCl2 (Fluka, 63064), 0.1% BSA (Calbiochem, 126609), 1 μM GDP (Sigma, G-7127), 2.5% DMSO (Fluka, 41644), 50 pM ^35S-GTPγS (Amersham Biosciences, SJ1320). The pH is 7.4. Test compounds are dissolved and diluted in 100% DMSO and pre-incubated at room temperature for 30 min in 150 μl of the above assay buffer, in the absence of ^35S-GTPγS. After addition of 50 μl of ^35S-GTPγS, the assay is incubated for 1 h at rt. The assay is terminated by transfer of the reaction mixture to a Multiscreen plate (Millipore, MAHFC1H60) using a cell harvester from Packard Biosciences, and the plates are washed with ice-cold 10 mM Na2HPO4/NaH2PO4 (70%/30%), dried, sealed at the bottom and, after addition of 25 μl MicroScint20 (Packard Biosciences, order #6013621), sealed on the top. Membrane-bound ^35S-GTPγS is measured with a TopCount from Packard Biosciences.
Specific binding is determined by subtracting non-specific binding from maximal binding. Maximal binding is the amount of cpm bound to the Multiscreen plate in the presence of 10 μM of S1P. Non-specific binding is the amount of binding in the absence of an agonist in the assay.

Structure (SMILES)	pEC50
CCCN(C)Cc1sc(-c2nc(-c3cc(C)c(OCC(O)CNC(=O)CO)c(C)c3)no2)cc1C (racemic) [Example 28]	9.70
CCN(CCO)Cc1sc(-c2nc(-c3cc(C)c(OCC(O)CNC(=O)CO)c(C)c3)no2)cc1C (racemic) [Example 31]	8.09
CCc1cc(-c2noc(-c3cc(C)c(CN(C)CC)s3)n2)cc(C)c1OC[C@@H](O)CNC(=O)CO [Example 52]	8.66
CCCCN(C)Cc1sc(-c2nc(-c3cc(C)c(OC[C@@H](O)CNC(=O)CO)c(CC)c3)no2)cc1C [Example 54]	8.70
CCCN(CC)Cc1sc(-c2nc(-c3cc(C)c(OC[C@@H](O)CNC(=O)CO)c(CC)c3)no2)cc1C [Example 57]	8.55
CCc1cc(-c2nc(-c3cc(C)c(OC[C@H](O)CO)c(CC)c3)no2)sc1CN(C)C [Example 81]	8.59
CCN(Cc1sc(-c2nc(-c3cc(C)c(OC[C@@H](O)CNC(=O)CO)c(C)c3)no2)cc1C)C(C)C [Example 92, N-{(2S)-3-[4-(5-{5-[(Ethyl-isopropyl-amino)-methyl]-4-methyl-thiophen-2-yl}-[1,2,4]oxadiazol-3-yl)-2,6-dimethyl-phenoxy]-2-hydroxy-propyl}-2-hydroxy-acetamide]	9.30
CCCN(C)Cc1sc(-c2nc(-c3cc(C)c(CCC(=O)NCC(=O)OC)c(CC)c3)no2)cc1C [Example 98]	7.76
CCCN(C)Cc1sc(-c2nc(-c3cc(C)c(CCC(=O)NCCC(=O)O)c(CC)c3)no2)cc1C [Example 115]	7.98
CCCN(CC)Cc1sc(-c2nc(-c3cc(C)c(CCC(=O)NCCC(=O)O)c(CC)c3)no2)cc1C [Example 119]	8.68
CCN(CC)Cc1sc(-c2nc(-c3cc(C)c(N)c(Cl)c3)no2)cc1C [Example 187, 2-Chloro-4-[5-(5-diethylaminomethyl-4-methyl-thiophen-2-yl)-[1,2,4]oxadiazol-3-yl]-6-methyl-phenylamine]	7.66
CCN(CC)Cc1sc(-c2nc(-c3ccc(OCC(O)CNC(=O)CO)cc3C)no2)cc1C (stereo not shown) [Example 196, N-(3-{4-[5-(5-Diethylaminomethyl-4-methyl-thiophen-2-yl)-[1,2,4]oxadiazol-3-yl]-3-methyl-phenoxy}-2-hydroxy-propyl)-2-hydroxy-acetamide]	7.89
CCN(CC)Cc1sc(-c2nc(-c3cc(C)c(OC[C@@H](O)CO)c(Cl)c3)no2)cc1C [Example 198, (2S)-3-{2-Chloro-4-[5-(5-diethylaminomethyl-4-methyl-thiophen-2-yl)-[1,2,4]oxadiazol-3-yl]-6-methyl-phenoxy}-propane-1,2-diol]	8.68
CCc1cc(-c2noc(-c3cc(C)c(CN(CC)CC)s3)n2)cc(C)c1OC[C@@H](O)CN1CCC(C(=O)O)C1 (stereo partly drawn) [Example 205, 1-((2S)-3-{4-[5-(5-Diethylaminomethyl-4-methyl-thiophen-2-yl)-[1,2,4]oxadiazol-3-yl]-2-ethyl-6-methyl-phenoxy}-2-hydroxy-propyl)-pyrrolidine-3-carboxylic acid]	7.74
CCc1cc(-c2noc(-c3cc(C)c(CN(CC)CC)s3)n2)cc(C)c1OC[C@@H](O)CNC(CO)CO [Example 214]	8.77
CCc1cc(-c2noc(-c3cc(C)c(CN(CC)CC)s3)n2)cc(C)c1OC[C@@H](O)CNCC(=O)O [Example 220]	8.47
CCc1cc(-c2noc(-c3cc(C)c(CN(CC)CC)s3)n2)cc(C)c1OC[C@@H](O)CNC(=O)CCO [Example 223]	8.21
CCc1cc(-c2noc(-c3cc(C)c(CN(CC)CC)s3)n2)cc(C)c1OC[C@@H](O)CNC(=O)CN [Example 225]	8.96
CCc1cc(-c2noc(-c3cc(C)c(CN(CC)CC)s3)n2)cc(C)c1OC[C@@H](O)CNC(=O)CNC [Example 226]	8.46

Further molecules by rising pEC50, results first:

pEC50	Structure (SMILES)
7.73	CCc1cc(-c2noc(-c3cc(C)c(CN(CC)CC)s3)n2)cc(C)c1CCC(=O)NCCO [Example 136]
7.92	CCN(CC)Cc1sc(-c2nc(-c3cc(C)c(CCC(=O)O)c(C)c3)no2)cc1C [Example 44]
7.95	Cc1cc(-c2nc(-c3cc(C)c(OCC(O)CNC(=O)CO)c(C)c3)no2)sc1CN1CCCC1 (racemic) [Example 32]
7.96	Cc1cc(-c2nc(-c3cc(C)c(OCC(O)CNC(=O)CO)c(C)c3)no2)sc1CNC(C)C (racemic) [Example 24]
7.99	Cc1cc(-c2nc(-c3cc(C)c(OCC(O)CNC(=O)CO)c(C)c3)no2)sc1CN(C)CCO (racemic) [Example 30]
8.01	Cc1cc(-c2nc(-c3cc(C)c(OCC(O)CNC(=O)CO)c(C)c3)no2)sc1CN1CCCCC1 (racemic) [Example 33]
8.02	CCc1cc(-c2noc(-c3cc(C)c(CN(CC)CC)s3)n2)cc(C)c1OC[C@@H](O)CNCCO [Example 210]
8.04	CCCN(C)Cc1sc(-c2nc(-c3cc(C)c(CCC(=O)O)c(CC)c3)no2)cc1CC [Example 86]
8.07	CCc1cc(-c2noc(-c3cc(C)c(CN(CC)CC)s3)n2)cc(C)c1CCC(=O)NCC(=O)O [Example 106]
8.15	CCCCN(CC)Cc1sc(-c2nc(-c3cc(C)c(OC[C@@H](O)CNC(=O)CO)c(CC)c3)no2)cc1C [Example 59]
8.27	CCc1cc(-c2nnc(-c3cc(C)c(CN(C)C)s3)o2)cc(C)c1OC[C@@H](O)CNC(=O)CO [Example 150, N-((2S)-3-{4-[5-(5-Dimethylaminomethyl-4-methyl-thiophen-2-yl)-[1,3,4]oxadiazol-2-yl]-2-ethyl-6-methyl-phenoxy}-2-hydroxy-propyl)-2-hydroxy-acetamide]
8.42	CNCc1sc(-c2nc(-c3cc(C)c(OCC(O)CNC(=O)CO)c(C)c3)no2)cc1C (racemic) [Example 21]
8.48	CCc1cc(-c2noc(-c3cc(C)c(CN(CC)C(C)C)s3)n2)cc(C)c1OC[C@@H](O)CNC(=O)CO [Example 58]
8.60	CCc1cc(-c2noc(-c3cc(C)c(CN(CC)CC)s3)n2)cc(C)c1OC[C@@H](O)CNC(=O)CO [Example 56]
8.60	CCN(CC)Cc1sc(-c2nc(-c3cc(C)c(OC[C@@H](O)CNC(=O)CO)c(OC)c3)no2)cc1C [Example 194, N-((2S)-3-{4-[5-(5-Diethylaminomethyl-4-methyl-thiophen-2-yl)-[1,2,4]oxadiazol-3-yl]-2-methoxy-6-methyl-phenoxy}-2-hydroxy-propyl)-2-hydroxy-acetamide]
8.80	CCc1cc(-c2nc(-c3cc(C)c(CN(CC)CC)s3)no2)cc(C)c1OC[C@@H](O)CNC(=O)CO [Example 149]
9.10	CCCN(C)Cc1sc(-c2nc(-c3cc(C)c(OC[C@@H](O)CNC(=O)CO)c(CC)c3)no2)cc1CC [Example 84]
9.22	Cc1cc(-c2nc(-c3cc(C)c(OC[C@@H](O)CNC(=O)CO)c(C)c3)no2)sc1CN(C)C [Example 87, N-((2S)-3-{4-[5-(5-Dimethylaminomethyl-4-methyl-thiophen-2-yl)-[1,2,4]oxadiazol-3-yl]-2,6-dimethyl-phenoxy}-2-hydroxy-propyl)-2-hydroxy-acetamide]
9.70	CCN(CC)Cc1sc(-c2nc(-c3cc(C)c(OC[C@@H](O)CNC(=O)CO)c(Cl)c3)no2)cc1C [Example 195, N-((2S)-3-{4-[5-(5-Diethylaminomethyl-4-methyl-thiophen-2-yl)-[1,2,4]oxadiazol-3-yl]-2-chloro-6-methyl-phenoxy}-2-hydroxy-propyl)-2-hydroxy-acetamide]
